Measurements: article PMC10940605, “Design, synthesis and in vitro anticancer activity of some new lomefloxacin derivatives” (Scientific Reports, 2024)

What was measured:
Experiment in all cases: NCI-60 SRB screen
Assay type in all cases: cell-based
MOLT-4 = conditions: Homo sapiens; MOLT-4, 10^–5 Molar; read-out: Percent growth inhibition
A549/ATCC = conditions: Homo sapiens, 10^–5 Molar, read-out: Percent growth inhibition
Procedure, shortened: (§1)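 Initial single-dose screen: 48 h drug exposure at 10^−5 M in RPMI 1640 medium, 37 °C. Bound SRB measured at […] and converted to % growth inhibition.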

ACHN = conditions: Homo sapiens, 10^–5 Molar, read-out: Percent growth inhibition
Procedure, shortened: (§2)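 DMSO stocks diluted in medium with gentamycin; 10^−5 M final; 48 h, 37 °C, 5% CO2, 100% humidity; TCA fix 60 min 4 °C; SRB 10 min RT; OD […]; % growth inhibition vs Tz and C.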

CAKI-1 = conditions: Homo sapiens; CAKI-1, 10^–5 Molar; read-out: Percent growth inhibition
Procedure, shortened: as §1

CCRF-CEM = conditions: Homo sapiens, 10^–5 Molar, read-out: Percent growth inhibition
Procedure, shortened: as §1

HCC-2998 = conditions: Homo sapiens; HCC-2998, 10^–5 Molar; read-out: Percent growth inhibition
Procedure, shortened: as §1

HCT-15 = conditions: Homo sapiens; HCT-15, 10^–5 Molar; read-out: Percent growth inhibition
Procedure, shortened: as §1

HOP-62 = conditions: Homo sapiens; HOP-62, 10^–5 Molar; read-out: Percent growth inhibition
Procedure, shortened: as §1

HOP-92 = conditions: Homo sapiens; HOP-92, 10^–5 Molar; read-out: Percent growth inhibition
Procedure, shortened: as §1

IGROV1 = conditions: Homo sapiens, IGROV-1; IGROV1, 10^–5 Molar; read-out: Percent growth inhibition
Procedure, shortened: as §1

K-562 = conditions: Homo sapiens, K562; K-562, 10^–5 Molar; read-out: Percent growth inhibition
Procedure, shortened: as §2

KM12 = conditions: Homo sapiens; KM12, 10^–5 Molar; read-out: Percent growth inhibition
Procedure, shortened: as §2

M14 = conditions: Homo sapiens; M14, 10^–5 Molar; read-out: Percent growth inhibition
Procedure, shortened: as §1

MALME-3M = conditions: Homo sapiens, 10^–5 Molar, read-out: Percent growth inhibition
Procedure, shortened: as §2

MCF7 = conditions: Homo sapiens; MCF7, 10^–5 Molar; read-out: Percent growth inhibition
Procedure, shortened: as §1

MDA-MB-231/ATCC = conditions: Homo sapiens, 10^–5 Molar, read-out: Percent growth inhibition
Procedure, shortened: as §2

NCI-H226 = conditions: Homo sapiens; NCI-H226, 10^–5 Molar; read-out: Percent growth inhibition
Procedure, shortened: as §2

NCI-H23 = conditions: Homo sapiens; NCI-H23, 10^–5 Molar; read-out: Percent growth inhibition
Procedure, shortened: as §1

OVCAR-8 = conditions: Homo sapiens; OVCAR-8, 10^–5 Molar; read-out: Percent growth inhibition
Procedure, shortened: as §1

PC-3 = conditions: Homo sapiens; PC-3, 10^–5 Molar; read-out: Percent growth inhibition
Procedure, shortened: as §2

SF-295 = conditions: Homo sapiens; SF-295, 10^–5 Molar; read-out: Percent growth inhibition
Procedure, shortened: as §2

SF-539 = conditions: Homo sapiens; SF-539, 10^–5 Molar; read-out: Percent growth inhibition
Procedure, shortened: as §1

SNB-19 = conditions: Homo sapiens; SNB-19, 10^–5 Molar; read-out: Percent growth inhibition
Procedure, shortened: as §2

SW-620 = conditions: Homo sapiens; SW-620, 10^–5 Molar; read-out: Percent growth inhibition
Procedure, shortened: as §1

Row | Compound | inhibition at 10 µM (MOLT-4) [%] | inhibition at 10 µM (A549/ATCC) [%] | inhibition at 10 µM (ACHN) [%] | inhibition at 10 µM (CAKI-1) [%] | inhibition at 10 µM (CCRF-CEM) [%] | inhibition at 10 µM (HCC-2998) [%] | inhibition at 10 µM (HCT-15) [%] | inhibition at 10 µM (HOP-62) [%] | inhibition at 10 µM (HOP-92) [%] | inhibition at 10 µM (IGROV1) [%] | inhibition at 10 µM (K-562) [%] | inhibition at 10 µM (KM12) [%] | inhibition at 10 µM (M14) [%] | inhibition at 10 µM (MALME-3M) [%] | inhibition at 10 µM (MCF7) [%] | inhibition at 10 µM (MDA-MB-231/ATCC) [%] | inhibition at 10 µM (NCI-H226) [%] | inhibition at 10 µM (NCI-H23) [%] | inhibition at 10 µM (OVCAR-8) [%] | inhibition at 10 µM (PC-3) [%] | further results
1 | CCn1cc(C(=O)NN=Cc2cccc(F)c2)c(=O)c2cc(F)c(N3CCNC(C)C3)c(F)c21 (stereo not drawn) [Compound 3b, 1-Ethyl-6,8-difluoro-N′-(3-fluorobenzylidene)-7-(3-methylpiperazin-1-yl)-4-oxo-1,4-dihydroquinoline-3-carbohydrazide] | 126 | 167 | 25.6 | 33.3 | 147 | 181 | 182 | 13.5 | 48.8 | 30.6 | 152 | 127 | 107 | 167 | 184 | 150 | 2.9 | 23.8 | 105 | 30.4 | inhibition at 10 µM (SF-295): 24.3%; inhibition at 10 µM (SF-539): 105%; inhibition at 10 µM (SNB-19): 159%; inhibition at 10 µM (SW-620): 185%
2 | CCn1cc(C(=O)NN=Cc2ccc(Br)cc2)c(=O)c2cc(F)c(N3CCNC(C)C3)c(F)c21 (stereo not drawn) [Compound 3c, N'-(4-Bromobenzylidene)-1-ethyl-6,8-difluoro-7-(3-methylpiperazin-1-yl)-4-oxo-1,4-dihydroquinoline-3-carbohydrazide] | 78 | 54.7 | 11.2 | 31.5 | 70.3 | 74.1 | 119 | 11.2 | 38.8 | 28.7 | 113 | 52.1 | 57.3 | 41.3 | 177 | 45.2 | 2.69 | 9.03 | 42.2 | 31.6 | inhibition at 10 µM (SF-295): 25.5%; inhibition at 10 µM (SF-539): 28.6%; inhibition at 10 µM (SNB-19): 45.5%; inhibition at 10 µM (SW-620): 174%
3 | CCn1cc(C(=O)NN=Cc2cccnc2)c(=O)c2cc(F)c(N3CCNC(C)C3)c(F)c21 (stereo not drawn) [Compound 3d, 1-Ethyl-6,8-difluoro-7-(3-methylpiperazin-1-yl)-4-oxo-N'-(pyridin-3-ylmethylene)-1,4-dihydroquinoline-3-carbohydrazide] | 65.6 | 14.4 | 13.6 | 67.8 | 54.3 | 50.4 | 1.76 | 40.6 | 74.2 | 71.7 | 71.9 | 20.7 | 10.3 | 40 | 80.9 | 64.2 | 58.2 | 50.9 | 70 | 49.1 | inhibition at 10 µM (SF-295): 15.1%; inhibition at 10 µM (SF-539): 68.2%; inhibition at 10 µM (SNB-19): 69.5%; inhibition at 10 µM (SW-620): 73.9%
4 | CCn1cc(C(=O)NN=Cc2cccs2)c(=O)c2cc(F)c(N3CCNC(C)C3)c(F)c21 (stereo not drawn) [Compound 3e, 1-Ethyl-6,8-difluoro-7-(3-methylpiperazin-1-yl)-4-oxo-N'-(thiophen-2-ylmethylene)-1,4-dihydroquinoline-3-carbohydrazide] | 24.9 | 56 | 12.8 | 53.5 | 32.8 | 71.4 | 75 | 27.6 | 46.2 | 33 | 139 | 16.5 | 50.6 | 137 | 177 | 59 | 24 | 10.2 | 56.2 | 23.7 | inhibition at 10 µM (SF-295): 14.7%; inhibition at 10 µM (SF-539): 15.8%; inhibition at 10 µM (SNB-19): 27.1%; inhibition at 10 µM (SW-620): 117%
